Here are results for 18 compounds from ChEMBL document CHEMBL5518195, “N-(Heteroaryl)thiophene sulfonamides as angiotensin AT2 receptor ligands” (Eur J Med Chem, 2024).

SMILES strings stand for the structures. Bounds are passed on as bounds.

The nature of data set [1]: Efflux ratio of apparent permeability in human Caco-2 cells at 5 uM measured for 15 to 60 mins by LC-MS/MS analysis. The format is ADME, cell-based. Conditions: time 15-60 min.
Data set [2] is described as follows: Stability in human liver microsomes assessed as half life at 1 uM in presence of NADPH by LC-MS/MS analysis. The data set is classed as ADME, Microsome. In general terms: Liver microsomes are vesicles of endoplasmic reticulum, rich in cytochrome P450 enzymes.
Data set [3] can be described thus: Apparent permeability across apical to basal side in human Caco-2 cells at 5 uM measured for 15 to 60 mins by LC-MS/MS analysis. The format is ADME, cell-based. Particulars: time 15-60 min. (In general: Caco-2 cells form a polarised layer with tight junctions and transporters.)
A short description of data set [4]: Stability in human hepatocytes assessed as half life at 1 uM by LC-MS/MS analysis. The format is ADME, cell-based, Hepatocyte.
The target in data set [5] is T1, Type-2 angiotensin II receptor (Homo sapiens, UniProt P50052).
T1 sequence (P50052 whole entry): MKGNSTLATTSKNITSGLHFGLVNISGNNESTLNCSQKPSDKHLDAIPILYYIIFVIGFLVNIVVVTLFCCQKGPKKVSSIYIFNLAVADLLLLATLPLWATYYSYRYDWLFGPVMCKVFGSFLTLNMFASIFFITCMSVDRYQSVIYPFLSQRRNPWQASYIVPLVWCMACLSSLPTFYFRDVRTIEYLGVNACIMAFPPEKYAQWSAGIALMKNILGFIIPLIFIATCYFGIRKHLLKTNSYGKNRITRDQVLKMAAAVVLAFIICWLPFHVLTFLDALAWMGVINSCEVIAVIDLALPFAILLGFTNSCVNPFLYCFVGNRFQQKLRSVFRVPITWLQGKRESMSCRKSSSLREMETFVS
Put plainly: Displacement of [125I][Sar1 Ile8]-angiotensin II binding to human AT2R expressed in HEK293 cells. The format is cell-based. (In general: In a radioligand displacement assay an active substance lowers the binding of a labelled ligand.)

Data set [6] concerns the target T2, Type-1 angiotensin II receptor (Homo sapiens, UniProt P30556).
T2 sequence (P30556 whole entry): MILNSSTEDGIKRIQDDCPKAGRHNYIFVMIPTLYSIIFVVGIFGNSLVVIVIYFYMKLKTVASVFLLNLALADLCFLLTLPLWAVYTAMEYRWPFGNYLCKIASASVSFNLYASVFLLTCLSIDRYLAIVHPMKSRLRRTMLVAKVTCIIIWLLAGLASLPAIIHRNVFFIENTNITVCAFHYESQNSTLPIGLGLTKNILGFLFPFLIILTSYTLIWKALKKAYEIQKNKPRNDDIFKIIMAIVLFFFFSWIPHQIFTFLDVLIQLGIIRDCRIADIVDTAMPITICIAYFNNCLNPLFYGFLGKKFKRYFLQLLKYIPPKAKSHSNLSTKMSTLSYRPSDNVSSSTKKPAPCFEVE
The data set is described as follows: Inhibition of [125I][Sar1 Ile8]-angiotensin II binding to human AT1R expressed in HEK293 cells. The data set is classed as cell-based.

Data set [7] can be described thus: Stability in mouse liver microsomes assessed as half life at 1 uM in presence of NADPH by LC-MS/MS analysis. The format is ADME, Microsome. Conditions: time 60 min.
The subject of the next data set is Thoracic aorta. The data set is described as follows: Induction of vasorelaxation in pre-contracted thoracic aorta of FVB/N mouse. The data set is classed as functional, tissue-based.

Take `CC(C)Cc1cc(-c2cccc(C(=O)Cn3ccnc3C(C)(C)C)c2)c(S(=O)(=O)Nc2ncccn2)s1`: in data set [1], the efflux ratio at 5 µM is 77. Moreover, the half-life at 1 µM in data set [2] came to 20 min; in data set [4], 77 min; in data set [7], 17 min. Besides, the Papp A→B at 5 µM in data set [3] was determined as 4.9 ×10⁻⁶ cm/s. The figures for the inhibitory constant (Ki) in data set [5] and in data set [6] were 4.9 nM and over 3000 nM, respectively. Moreover, the Activity result in the data set with Thoracic aorta is “Dose-Dependent Effect”.
As to `CC(C)Cc1cc(-c2cccc(Cn3ccnc3)c2)c(S(=O)(=O)Nc2ncc(Br)cn2)s1`, the half-life at 1 µM in data set [2] stood at 14 min; in data set [7] it was 160 min. This compound also returned a Ki in data set [5] of 42 nM.
The matching figures for `CC(C)Cc1cc(-c2cccc(C(=O)Cn3ccnc3C(C)(C)C)c2)c(S(=O)(=O)Nc2ncc(Br)cn2)s1`: 4.3 min, 11 min and 1.5 nM.
Take `CC(C)Cc1cc(-c2cccc(C(=O)Cn3ccnc3C(C)(C)C)c2)c(S(=O)(=O)Nc2ncc(Cl)cn2)s1.O=C(O)C(F)(F)F`: the half-life at 1 µM came to 6.2 min in data set [2] and 11 min in data set [7]. Moreover, the Ki in data set [5] amounted to 3.3 nM.
For the compound `CCCCOC(=O)NS(=O)(=O)c1sc(CC(C)C)cc1-c1cccc(Cn2ccnc2)c1`, the Papp A→B at 5 µM in data set [3] is 3.4 ×10⁻⁶ cm/s.
On to `COc1ccc2c(c1OCc1ccccc1)C[C@@H](C(=O)O)N(C(=O)C(c1ccccc1)c1ccccc1)C2` [OLODANRIGAN], for which the efflux ratio at 5 µM in data set [1] amounted to 32. For the same compound, the Papp A→B at 5 µM in data set [3] is 1.8 ×10⁻⁶ cm/s.
Turning to `CC(C)Cc1cc(-c2cccc(Cn3ccnc3)c2)c(S(=O)(=O)Nc2nc3ccccc3s2)s1.O=C(O)C(F)(F)F`, the half-life at 1 µM in data set [2] is 56 min; in data set [7] it was 480 min. In data set [5], this compound displayed a Ki of 800 nM.
The matching figures for `CC(C)Cc1cc(-c2cccc(C(=O)Cn3ccnc3C(C)(C)C)c2)c(S(=O)(=O)Nc2nccs2)s1`: 6.7 min, 6.4 min and 96 nM.
The matching figures for `CC(C)Cc1cc(-c2cccc(Cn3ccnc3)c2)c(S(=O)(=O)Nc2nccs2)s1`: 61 min, 210 min and 650 nM.
The matching figures for `CC(C)Cc1cc(-c2cccc(Cn3ccnc3)c2)c(S(=O)(=O)Nc2nccc(C#N)n2)s1.O=C(O)C(F)(F)F`: 12 min, 37 min and 100 nM.
Take `CC(C)Cc1cc(-c2cccc(C(=O)Cn3ccnc3C(C)(C)C)c2)c(S(=O)(=O)Nc2ncc(C#N)cn2)s1.O=C(O)C(F)(F)F`: the figures for the half-life at 1 µM in data set [2] and in data set [7] were 1.2 min and 2.3 min, respectively. The compound further came in with a Ki in data set [5] of 4.3 nM.
The matching figures for `CC(C)Cc1cc(-c2cccc(C(=O)Cn3ccnc3C(C)(C)C)c2)c(S(=O)(=O)Nc2ncc(F)cn2)s1.O=C(O)C(F)(F)F`: 16 min, 21 min and 1.7 nM.
As to `CC(C)Cc1cc(-c2cccc(Cn3ccnc3)c2)c(S(=O)(=O)Nc2nccc(C(N)=O)n2)s1.O=C(O)C(F)(F)F`, the results for the half-life at 1 µM in data set [2] and in data set [7] were 43 min and 36 min, respectively. For the same compound, affinity in data set [5] was put at a Ki of 1100 nM.
The matching figures for `CC(C)Cc1cc(-c2cccc(C(=O)Cn3ccnc3C(C)(C)C)c2)c(S(=O)(=O)Nc2ccc(C(F)(F)F)cn2)s1`: 2.3 min, 3.6 min and 29 nM.
Turning to `CC(C)Cc1cc(-c2cccc(C(=O)Cn3ccnc3C(C)(C)C)c2)c(S(=O)(=O)Nc2ccc(C#N)cc2)s1`, the half-life at 1 µM was found to be 1.2 min in data set [2] and 2.3 min in data set [7]. In addition, in data set [5], the affinity corresponds to a Ki of 600 nM.
The matching figures for `Cc1nc(NS(=O)(=O)c2sc(CC(C)C)cc2-c2cccc(Cn3ccnc3)c2)ncc1Cl`: 6.6 min, 23 min and 300 nM.
The matching figures for `CC(C)Cc1cc(-c2cccc(Cn3ccnc3)c2)c(S(=O)(=O)Nc2nccc(C(F)(F)F)n2)s1.O=C(O)C(F)(F)F`: 6.7 min, 10 min and 300 nM.
Take `CC(C)Cc1cc(-c2cccc(C(=O)Cn3ccnc3C(C)(C)C)c2)c(S(=O)(=O)Nc2ncc(C(F)(F)F)cn2)s1`: the half-life at 1 µM stood at 4.8 min in data set [2] and 12 min in data set [7]. Further, the Ki in data set [5] was determined as 2 nM.

What is called efflux ratio is a quotient of directional permeabilities that is used to spot active efflux. By half-life is commonly meant how long it takes for the measured level to halve. By Papp A→B is commonly meant the apparent permeability from the apical to the basolateral side of a cell layer. One may read the Ki as a measure of affinity in units of concentration, obtained from inhibition or displacement. Higher therefore signals weaker binding.
